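Cells were grown in 96-well plates and exposed to each compound for 48 hours at five concentrations; endpoints were interpolated linearly between bracketing concentrations, or set to the highest concentration if not reached. GI50 marks 50% less growth.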 Activity calls are given as the source filed them. Rule as the data show it: active = GI50 up to about 1.1 µM and inactive = higher.
Columns and labels:
Assay in all cases: growth of human tumour cells (NCI), 48 h
[1] = test system: SF-295
[2] = test system: HOP-62
[3] = test system: ACHN
[4] = test system: Malme-3M
[5] = test system: NCI-H226
[6] = test system: HCT-15
[7] = test system: UACC-257
[8] = test system: HOP-92
[9] = test system: NCI/ADR-RES
[10] = test system: A549
[11] = test system: K562
[12] = test system: IGROV-1
[13] = test system: LOX IMVI
[14] = test system: CAKI-1
[15] = test system: SF-539
[16] = test system: SK-OV-3
[17] = test system: NCI-H522
[18] = test system: PC-3
[19] = test system: MOLT-4
[20] = test system: SW-620
[21] = test system: M14
[22] = test system: MDA-MB-435
[23] = test system: MDA-N
[24] = test system: Hs-578T
[25] = test system: BT-549
[26] = test system: MCF7
[27] = test system: OVCAR-4
[28] = test system: EKVX
[29] = test system: KM12
[30] = test system: SK-MEL-5
[31] = test system: SNB-19
[32] = test system: SR
[33] = test system: COLO 205
[34] = test system: RXF 393
[35] = test system: SK-MEL-2
[36] = test system: MDA-MB-231
[37] = test system: SK-MEL-28
[38] = test system: TK-10
[39] = test system: NCI-H23
[40] = test system: HT-29
[41] = test system: UACC-62
[42] = test system: OVCAR-8
[43] = test system: U-251
[44] = test system: SN12C
[45] = test system: A498
[46] = test system: OVCAR-3
[47] = test system: RPMI-8226
[48] = test system: 786-0
[49] = test system: NCI-H460
[50] = test system: SF-268
[51] = test system: T47D
[52] = test system: UO-31
[53] = test system: SNB-75
[54] = test system: OVCAR-5
[55] = test system: HCT-116
[56] = test system: HL-60
[57] = test system: HCC 2998
[58] = test system: CCRF-CEM
[59] = test system: DU-145

Measured: GI50

c1ccc(CCc2cccnc2)nc1
inactive: [1] > 100 µM | [2] > 100 µM | [3] > 100 µM | [4] > 100 µM | [5] > 100 µM | [7] > 100 µM | [8] > 100 µM | [9] > 100 µM | [10] > 100 µM | [11] 52.4 µM | [12] > 100 µM | [13] > 100 µM | [14] > 100 µM | [15] > 100 µM | [16] > 100 µM | [17] 45.7 µM | [18] > 100 µM | [19] > 100 µM | [20] > 100 µM | [21] > 100 µM | [22] > 100 µM | [23] > 100 µM | [24] > 100 µM | [25] > 100 µM | [26] > 100 µM | [27] > 100 µM | [28] > 100 µM | [29] > 100 µM | [30] > 100 µM | [31] > 100 µM | [32] > 100 µM | [33] > 100 µM | [34] > 100 µM | [35] > 100 µM | [36] > 100 µM | [37] > 100 µM | [38] > 100 µM | [39] > 100 µM | [40] > 100 µM | [41] > 100 µM | [42] > 100 µM | [43] > 100 µM | [44] > 100 µM | [45] > 100 µM | [46] > 100 µM | [47] > 100 µM | [48] > 100 µM | [49] > 100 µM | [50] > 100 µM | [51] > 100 µM | [52] > 100 µM | [53] > 100 µM | [54] > 100 µM | [55] > 100 µM
> 100 µM: [6]

N=C(N)NCC[C@H](NC(=O)OCCCCCn1ccc(=O)[nH]c1=O)C(=O)O
inactive: [1] > 100 µM | [2] > 100 µM | [3] > 100 µM | [4] > 100 µM | [5] > 100 µM | [7] > 100 µM | [8] > 100 µM | [9] > 100 µM | [10] > 100 µM | [11] > 100 µM | [13] > 100 µM | [56] > 100 µM | [14] > 100 µM | [15] > 100 µM | [16] > 100 µM | [18] > 100 µM | [19] > 100 µM | [20] > 100 µM | [22] > 100 µM | [23] > 100 µM | [57] > 100 µM | [24] > 100 µM | [25] > 100 µM | [26] > 100 µM | [27] > 100 µM | [58] > 100 µM | [28] > 100 µM | [29] > 100 µM | [30] > 100 µM | [31] > 100 µM | [33] > 100 µM | [34] > 100 µM | [35] > 100 µM | [36] > 100 µM | [37] > 100 µM | [38] > 100 µM | [39] > 100 µM | [40] > 100 µM | [41] > 100 µM | [59] > 100 µM | [42] > 100 µM | [43] > 100 µM | [44] > 100 µM | [46] > 100 µM | [47] > 100 µM | [48] > 100 µM | [49] > 100 µM | [50] > 100 µM | [51] > 100 µM | [52] > 100 µM | [53] 41.4 µM | [54] > 100 µM | [55] > 100 µM
> 100 µM: [6]

From ChEMBL document CHEMBL1201862, “PubChem BioAssay data set” (2004)
